System: in vitro grown Mycobacteria (M. tuberculosis)
Test: QUM: Quantification of in vitro grown Mycobacteria (in vitro growth fluorescence assay)
Type: cell-based
Conditions: Mycobacterium tuberculosis; MIC, 80% bacterial growth inhibition; in vitro growth; read-out: QUM
From the text: A 120,000 small molecule compound library was screened using a validated phenotypic cell-based assay (WO2010003533A2). Active compounds from the primary screen were confirmed via dose response in the intracellular (QIM) assay and an in vitro (QUM) assay, wherein the abbreviation “QIM” stands for Quantification of Intracellular Mycobacteria and the abbreviation “QUM” stands for Quantification of in vitro grown Mycobacteria. […] The MIC is the minimum concentration of compound required to obtain 80% bacterial growth inhibition.
The imidazopyridine compounds (scaffolds Ia and Ib; see Table 1) underwent derivatization according to the methods outlined below (Schemes 1-13). Resulting derivatives were examined for inhibitory activity (MIC) using the assays described above (Example 1) and the results are summarized in Table 1.

Row | SMILES | MIC
1 | CCc1nc2c(Br)cccn2c1C(=O)NCc1ccc(N2CCN(c3ccc(F)cc3)CC2)cc1 [Compound 305, 8-Bromo-2-ethyl-N-(4-(4-(4-fluorophenyl)piperazin-1-yl)benzyl)imidazo[1,2-a]pyridine-3-carboxamide] | < 1 µM
2 | CCc1nc2ccc(Cl)cn2c1C(=O)NCc1ccc(N2CCC(c3ccc(OC(F)(F)F)cc3)CC2)cc1 [Compound 289, 6-Chloro-2-ethyl-N-(4-(4-(4-(trifluoromethoxy)phenyl)piperidin-1-yl)benzyl)imidazo[1,2-a]pyridine-3-carboxamide] | < 1 µM
3 | CCc1nc2cc(Cl)ccn2c1C(=O)NCc1ccc(N2CCC(C(=O)N(C)C)CC2)cc1 [Compound 346, 7-Chloro-N-(4-(4-(dimethylcarbamoyl)piperidin-1-yl)benzyl)-2-ethylimidazo[1,2-a]pyridine-3-carboxamide] | < 1 µM
4 | CCc1nc2cc(Cl)ccn2c1C(=O)OCc1ccc(Oc2ccc(F)cc2)cc1 [Compound 264] | < 1 µM
5 | CCc1nc2cc(Cl)ccn2c1C(=O)NCc1ccc2oc(-c3ccc(F)cc3)nc2c1 [Compound 336, 7-Chloro-2-ethyl-N-((2-(4-fluorophenyl)benzo[d]oxazol-5-yl)methyl)imidazo[1,2-a]pyridine-3-carboxamide] | < 1 µM
6 | CCc1nc2ccc(C)cn2c1C(=O)NCc1ccc(N2CCOCC2)cc1 [Compound 219, 2-ethyl-6-methyl-N-(4-morpholinobenzyl)imidazo[1,2-a]pyridine-3-carboxamide] | < 1 µM
7 | CCOC(=O)C1CCN(c2ccc(CNC(=O)c3c(CC)nc4ccc(Cl)cn34)cc2)CC1 [Compound 300, Ethyl 1-(4-((6-chloro-2-ethylimidazo[1,2-a]pyridine-3-carboxamido)methyl)phenyl)piperidine-4-carboxylate] | < 1 µM
8 | CCc1nc2ccc(Cl)cn2c1C(=O)NCc1ccc2oc(-c3ccc(F)cc3)nc2c1 [Compound 335, 6-Chloro-2-ethyl-N-((2-(4-fluorophenyl)benzo[d]oxazol-5-yl)methyl)imidazo[1,2-a]pyridine-3-carboxamide] | < 1 µM
9 | CCc1nc2c(OC)cccn2c1C(=O)NCc1ccc(N2CCOCC2)cc1 [Compound 318, 2-Ethyl-8-methoxy-N-(4-morpholinobenzyl)imidazo[1,2-a]pyridine-3-carboxamide] | < 1 µM
10 | CCc1nc2cc(OC)ccn2c1C(=O)NCc1ccc(N2CCOCC2)cc1 [Compound 314, 2-Ethyl-7-methoxy-N-(4-morpholinobenzyl)imidazo[1,2-a]pyridine-3-carboxamide] | < 1 µM
11 | CCc1nc2c(-c3ccncc3)cccn2c1C(=O)NCc1ccc(N2CCOCC2)cc1 [Compound 327, 2-Ethyl-N-(4-morpholinobenzyl)-8-(pyridin-4-yl)imidazo[1,2-a]pyridine-3-carboxamide] | > 20 µM
12 | CCc1nc2cc(Cl)ccn2c1C(=O)NCc1ccc(N2CCC(c3ccc(OC(F)(F)F)cc3)CC2)cc1 [Compound 290, 7-Chloro-2-ethyl-N-(4-(4-(4-(trifluoromethoxy)phenyl)piperidin-1-yl)benzyl)imidazo[1,2-a]pyridine-3-carboxamide] | < 1 µM
13 | CCc1nc2ccccn2c1C(=O)NCc1ccc2oc(-c3ccc(F)cc3)nc2c1 [Compound 334, 2-Ethyl-N-((2-(4-fluorophenyl)benzo[d]oxazol-5-yl)methyl)imidazo[1,2-a]pyridine-3-carboxamide] | < 1 µM
14 | CCc1nc2cc(Cl)ccn2c1C(=O)NCc1ccc(N2CCC(C(=O)O)CC2)cc1 [Compound 302, 1-(4-((7-Chloro-2-ethylimidazo[1,2-a]pyridine-3-carboxamido)methyl)phenyl)piperidine-4-carboxylic acid] | < 1 µM
15 | CCc1nc2cc(Cl)ccn2c1C(=O)NCc1ccc(N2CCC(COC3CCCC3)CC2)cc1 [Compound 169, 7-Chloro-N-(4-(4-(cyclopentyloxymethyl)piperidin-1-yl)benzyl)-2-ethylimidazo[1,2-a]pyridine-3-carboxamide] | < 1 µM
16 | CCc1nc2c(-c3ccncc3)cccn2c1C(=O)NCc1ccc(N2CCN(c3ccc(F)cc3)CC2)cc1 [Compound 312, 2-Ethyl-N-(4-(4-(4-fluorophenyl)piperazin-1-yl)benzyl)-8-(pyridin-4-yl)imidazo[1,2-a]pyridine-3-carboxamide] | < 1 µM
17 | CCc1nc2c(OC)cccn2c1C(=O)NCc1ccc(N2CCN(c3ccc(F)cc3)CC2)cc1 [Compound 115, 2-Ethyl-N-(4-(4-(4-fluorophenyl)piperazin-1-yl)benzyl)-8-methoxyimidazo[1,2-a]pyridine-3-carboxamide] | < 1 µM
18 | CCc1nc2cc(Cl)ccn2c1C(=O)NCc1ccc(N2CC3CCCCC3C2)cc1 (stereo not shown) [Compound 224, N-(4-(1H-isoindol-2(3H,3aH,4H,5H,6H,7H,7aH)-yl)benzyl)-7-chloro-2-ethylimidazo[1,2-a]pyridine-3-carboxamide] | < 1 µM
19 | CCc1nc2ccc(C)cn2c1C(=O)NCc1ccc(Oc2ccc(OC(F)(F)F)cc2)cc1 [Compound 255, 2-Ethyl-6-methyl-N-(4-(4-(trifluoromethoxy)phenoxy)benzyl)imidazo[1,2-a]pyridine-3-carboxamide] | < 1 µM
20 | CCc1nc2cc(OC)ccn2c1C(=O)NCc1ccc(N2CCN(c3ccc(F)cc3)CC2)cc1 [Compound 114, 2-Ethyl-N-(4-(4-(4-fluorophenyl)piperazin-1-yl)benzyl)-7-methoxyimidazo[1,2-a]pyridine-3-carboxamide] | < 1 µM
21 | CCc1nc2cc(Cl)ccn2c1C(=O)NCc1ccc(-c2ccc(C=O)cc2)cc1 [Compound 252, 7-Chloro-2-ethyl-N-((4′-formylbiphenyl-4-yl)methyl)imidazo[1,2-a]pyridine-3-carboxamide] | < 1 µM
22 | CCc1nc2ccc(OC)cn2c1C(=O)NCc1ccc(N2CCOCC2)cc1 [Compound 313] | < 1 µM
23 | CCc1nc2ccc(Cl)cn2c1C(=O)NCc1ccc(N2CCC(C(=O)O)CC2)cc1 [Compound 220, 1-(4-((6-Chloro-2-ethylimidazo[1,2-a]pyridine-3-carboxamido)methyl)phenyl)piperidine-4-carboxylic acid] | < 1 µM
24 | CCc1nc2c(F)cccn2c1C(=O)NCc1ccc(OC(F)(F)F)cc1 [Compound 251, 2-Ethyl-8-fluoro-N-(4-(trifluoromethoxy)benzyl)imidazo[1,2-a]pyridine-3-carboxamide] | < 1 µM
25 | CCc1nc2cc(Cl)ccn2c1C(=O)NCc1ccc(N2CCC(COC(F)F)CC2)cc1 [Compound 183, 7-Chloro-N-(4-(4-((difluoromethoxy)methyl)piperidin-1-yl)benzyl)-2-ethylimidazo[1,2-a]pyridine-3-carboxamide] | < 1 µM
26 | CCc1nc2cc(Cl)ccn2c1C(=O)NCc1ccc(N2CC3CC=CCC3C2)cc1 (stereo not shown) [Compound 223, 7-Chloro-N-(4-(3a,4-dihydro-1H-isoindol-2(3H,7H,7aH)-yl)benzyl)-2-ethylimidazo[1,2-a]pyridine-3-carboxamide] | < 1 µM
27 | CCc1nc2ccccn2c1C(=O)NCc1ccc(N2CCC(c3ccc(F)cc3)CC2)cc1 [Compound 285, 2-Ethyl-N-(4-(4-(4-fluorophenyl)piperidin-1-yl)benzyl)imidazo[1,2-a]pyridine-3-carboxamide] | < 1 µM
28 | CCOC(=O)C1CCN(c2ccc(CNC(=O)c3c(CC)nc4cc(Cl)ccn34)cc2)CC1 [Compound 301, Ethyl 1-(4-((7-chloro-2-ethylimidazo[1,2-a]pyridine-3-carboxamido)methyl)phenyl)piperidine-4-carboxylate] | < 1 µM
